Data reported in PubChem BioAssay (NCI).
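Test compounds were applied to cells in 96-well plates for 48 hours at 5 doses. TGI denotes the concentration required for complete inhibition of growth.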

Tests used:
Assay in all cases: NCI anticancer screen, dose series, 48 h
ACHN renal = tested on: ACHN renal
DMS 273 small cell lung = tested on: DMS 273 small cell lung
HCT-15 colon = tested on: HCT-15 colon
A549 NSCLC = tested on: A549 NSCLC
SF-268 CNS = tested on: SF-268 CNS
HOP-92 NSCLC = tested on: HOP-92 NSCLC
UACC-257 melanoma = tested on: UACC-257 melanoma
OVCAR-8 ovarian = tested on: OVCAR-8 ovarian
DMS 114 small cell lung = tested on: DMS 114 small cell lung
SR leukemia = tested on: SR leukemia
NCI-H226 lung = tested on: NCI-H226 lung
RXF 393 renal = tested on: RXF 393 renal
SW-620 colon = tested on: SW-620 colon
OVCAR-5 ovarian = tested on: OVCAR-5 ovarian
RPMI-8226 leukemia = tested on: RPMI-8226 leukemia
NCI-H23 lung = tested on: NCI-H23 lung
K-562 leukemia = tested on: K-562 leukemia
SF-295 CNS = tested on: SF-295 CNS
786-0 renal = tested on: 786-0 renal
KM20L2 colon = tested on: KM20L2 colon
SK-MEL-2 melanoma = tested on: SK-MEL-2 melanoma
SNB-78 CNS = tested on: SNB-78 CNS
KM12 colon = tested on: KM12 colon
SK-MEL-28 melanoma = tested on: SK-MEL-28 melanoma
MALME-3M melanoma = tested on: MALME-3M melanoma
SN12C renal = tested on: SN12C renal
HT29 colon = tested on: HT29 colon
UO-31 renal = tested on: UO-31 renal
HCT-116 colon = tested on: HCT-116 colon
COLO 205 colon = tested on: COLO 205 colon
LXFL 529 NSCLC = tested on: LXFL 529 NSCLC
EKVX NSCLC = tested on: EKVX NSCLC
SF-539 CNS = tested on: SF-539 CNS
HCC-2998 colon = tested on: HCC-2998 colon
SNB-19 CNS = tested on: SNB-19 CNS
TK-10 renal = tested on: TK-10 renal
U251 CNS = tested on: U251 CNS
MOLT-4 leukemia = tested on: MOLT-4 leukemia
M14 melanoma = tested on: M14 melanoma
SNB-75 CNS = tested on: SNB-75 CNS
HS 578T breast = tested on: HS 578T breast
BT-549 breast = tested on: BT-549 breast
A498 renal = tested on: A498 renal
HL-60(TB) leukemia = tested on: HL-60(TB) leukemia
DU-145 prostate = tested on: DU-145 prostate
MCF7 breast = tested on: MCF7 breast
CAKI-1 renal = tested on: CAKI-1 renal
HOP-62 NSCLC = tested on: HOP-62 NSCLC
IGROV1 ovarian = tested on: IGROV1 ovarian
MDA-MB-231 breast = tested on: MDA-MB-231 breast
T-47D breast = tested on: T-47D breast
PC-3 prostate = tested on: PC-3 prostate
OVCAR-3 ovarian = tested on: OVCAR-3 ovarian
MDA-N = tested on: MDA-N
MDA-MB-435 = tested on: MDA-MB-435
UACC-62 melanoma = tested on: UACC-62 melanoma
CCRF-CEM leukemia = tested on: CCRF-CEM leukemia
NCI-H522 lung = tested on: NCI-H522 lung
NCI/ADR-RES ovarian = tested on: NCI/ADR-RES ovarian
LOX IMVI melanoma = tested on: LOX IMVI melanoma

Measured: TGI

COC(=O)c1cc(Cl)ccc1NC(=O)C1CCCCC1
not listed: M14 melanoma | SNB-75 CNS | HS 578T breast | BT-549 breast | A498 renal | HL-60(TB) leukemia | DU-145 prostate | MCF7 breast | CAKI-1 renal | HOP-62 NSCLC | IGROV1 ovarian | MDA-MB-231 breast | T-47D breast | PC-3 prostate | OVCAR-3 ovarian | MDA-N | MDA-MB-435 | UACC-62 melanoma | CCRF-CEM leukemia | NCI-H522 lung | NCI/ADR-RES ovarian | LOX IMVI melanoma
> 100 µM: all other assays above

COc1cc(CSc2ccc(O)cc2)cc(O)c1O
51.6 µM: SF-295 CNS
71.3 µM: NCI/ADR-RES ovarian
56.3 µM: RPMI-8226 leukemia
57.1 µM: HCT-15 colon
53.4 µM: OVCAR-5 ovarian | T-47D breast
43.7 µM: M14 melanoma
58.2 µM: OVCAR-8 ovarian
94.6 µM: MDA-MB-435
73.5 µM: MDA-MB-231 breast
91.9 µM: KM12 colon
95.9 µM: SF-268 CNS
80.5 µM: SN12C renal
61.2 µM: UACC-62 melanoma
52.6 µM: COLO 205 colon
65.5 µM: NCI-H226 lung
63.6 µM: BT-549 breast
87 µM: CCRF-CEM leukemia
46.8 µM: HT29 colon
33.8 µM: MCF7 breast
85.9 µM: SF-539 CNS
91.2 µM: CAKI-1 renal
38.3 µM: NCI-H522 lung
79.1 µM: SK-MEL-2 melanoma
49.7 µM: HCT-116 colon
67.6 µM: OVCAR-3 ovarian
50.4 µM: HOP-92 NSCLC
not listed: DMS 273 small cell lung | DMS 114 small cell lung | KM20L2 colon | SNB-78 CNS | LXFL 529 NSCLC
> 100 µM: all other assays above
